# Data from patent US20050228180A1, “Alpha, omega-dicarboximide derivatives as useful uro-selective a1a adrenoceptor blockers” (priority 2002, published 2005).
# Legend:
# [1] = target: T1, α1A adrenoceptor (Rattus norvegicus, UniProt P43140); assay: Radioligand binding, [3H] prazosin displacement, rat submaxillary membranes; details: for Ki: [3H] prazosin displacement, rat submaxillary membranes, read-out: Affinity (Ki) α1A (Rat Submaxillary); for α1B/α1A: ratio of binding affinities, rat liver / rat submaxillary
# T1 construct: from tissue; host or cells: rat submaxillary gland membranes
# T1 sequence (P43140 1-466): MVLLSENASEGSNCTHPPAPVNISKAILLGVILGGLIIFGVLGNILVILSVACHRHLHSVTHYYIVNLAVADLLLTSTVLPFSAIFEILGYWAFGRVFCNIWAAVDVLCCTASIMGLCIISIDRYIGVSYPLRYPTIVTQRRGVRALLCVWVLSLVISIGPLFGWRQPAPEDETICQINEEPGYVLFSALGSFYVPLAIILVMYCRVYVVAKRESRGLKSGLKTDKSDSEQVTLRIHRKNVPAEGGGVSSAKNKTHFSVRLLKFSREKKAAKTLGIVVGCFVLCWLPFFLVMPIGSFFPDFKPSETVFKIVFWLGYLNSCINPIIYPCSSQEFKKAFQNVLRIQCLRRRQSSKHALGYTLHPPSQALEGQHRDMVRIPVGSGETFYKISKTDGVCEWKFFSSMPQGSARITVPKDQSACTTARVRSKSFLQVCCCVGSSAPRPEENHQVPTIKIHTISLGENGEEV
# Method in brief: (§1)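 Displacement of [3H]prazosin measured by filtration and counting, with Ki from IC50 via Cheng–Prusoff and nonspecific binding set by 300 nM prazosin. Native rat submaxillary (α1A) or liver (α1B) membranes, 150-250 μg protein, 1 h at 24-25° C in Tris/EDTA pH 7.4.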
# [2] = target: T2, α1B adrenoceptor (Rattus norvegicus, UniProt P15823); assay: Radioligand binding, [3H] prazosin displacement, rat liver membranes; details: read-out: Affinity (Ki) α1B (Rat Liver)
# T2 construct: from tissue; host or cells: rat liver membranes
# T2 sequence (P15823 1-515): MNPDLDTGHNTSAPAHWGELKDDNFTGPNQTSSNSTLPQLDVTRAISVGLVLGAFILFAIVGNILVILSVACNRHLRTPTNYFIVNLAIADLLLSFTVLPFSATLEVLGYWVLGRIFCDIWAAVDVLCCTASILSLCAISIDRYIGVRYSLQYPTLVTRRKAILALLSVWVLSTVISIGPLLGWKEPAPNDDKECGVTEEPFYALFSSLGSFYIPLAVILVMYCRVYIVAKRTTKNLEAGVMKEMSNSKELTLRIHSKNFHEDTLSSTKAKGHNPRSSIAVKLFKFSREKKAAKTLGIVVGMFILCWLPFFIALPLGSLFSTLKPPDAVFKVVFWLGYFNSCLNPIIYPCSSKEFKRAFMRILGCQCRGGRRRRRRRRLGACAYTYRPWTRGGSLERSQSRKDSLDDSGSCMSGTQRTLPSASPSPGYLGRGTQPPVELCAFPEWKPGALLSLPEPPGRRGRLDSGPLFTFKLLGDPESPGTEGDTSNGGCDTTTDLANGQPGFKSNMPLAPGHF
# Method in brief: as §1
# [3] = target: T3, α1D adrenoceptor (aorta) (Rattus norvegicus, UniProt P23944); assay: In vitro functional assay, isolated aorta, norepinephrine contraction; assay type: cell-based; details: read-out: α Adrenoceptor Subtype (pKB) α1D (converted)
# T3 construct: Isolated tissues were mounted in organ bath containing Krebs Henseleit buffer; from tissue; host or cells: isolated rat aorta
# T3 sequence (P23944 1-561): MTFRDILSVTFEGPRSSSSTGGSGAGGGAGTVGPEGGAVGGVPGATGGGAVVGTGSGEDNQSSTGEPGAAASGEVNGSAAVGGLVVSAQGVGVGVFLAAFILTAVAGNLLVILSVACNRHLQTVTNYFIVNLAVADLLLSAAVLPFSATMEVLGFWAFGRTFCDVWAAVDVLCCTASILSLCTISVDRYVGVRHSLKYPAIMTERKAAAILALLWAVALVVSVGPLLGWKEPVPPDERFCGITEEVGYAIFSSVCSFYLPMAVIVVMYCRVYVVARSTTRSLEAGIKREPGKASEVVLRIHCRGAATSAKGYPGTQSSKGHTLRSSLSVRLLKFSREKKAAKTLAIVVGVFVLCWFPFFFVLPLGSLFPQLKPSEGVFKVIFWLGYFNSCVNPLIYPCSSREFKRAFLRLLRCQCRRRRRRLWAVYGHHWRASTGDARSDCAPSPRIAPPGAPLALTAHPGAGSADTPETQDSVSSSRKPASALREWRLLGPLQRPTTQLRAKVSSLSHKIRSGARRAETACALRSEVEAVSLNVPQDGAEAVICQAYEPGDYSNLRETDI
# Description: (§2) In order to study selectivity of action of these compounds towards different a-adrenoceptor subtypes, the ability of these compounds to antagonise (α1D) prostate (α1A) and spleen (α1B) was studied. Aorta and spleen tissues were isolated from urethane anaesthetized (1.5 g/kg) male wister rats. Isolated tissues were mounted in organ bath containing Krebs Henseleit buffer of the following composition (mM): NaCl 118; KCl 4.7; CaCl2 2.5; MgSO4 7H2O 1.2; NaHCO3 25; KH2PO4 1.2; glucose 11.5. Buffer was maintained at 37° C. and aereated with a mixture of 95% O2 and 5% CO2. A resting tension of 2 g (aorta) or 1 g (spleen and prostate) was applied to tissues. Contractile response was monitored using a force displacement transducer and recorded on chart recorders. Tissues were allowed to equilibrate for 2 hours. At the end of equilibration period, concentration response curves to norepinephrine (aorta) and phenylepinephrine (spleen and prostate) were obtained in the absence and presence of tested compound (at concentration of […]). Antagonist affinity was calculated and expressed as pKB values in Table II.
# [4] = target: T4, α1B adrenoceptor (spleen) (Rattus norvegicus, UniProt P15823); assay: In vitro functional assay, isolated spleen, phenylepinephrine contraction; assay type: cell-based; details: read-out: α Adrenoceptor Subtype (pKB) α1B (converted)
# T4 construct: Isolated tissues were mounted in organ bath containing Krebs Henseleit buffer; from tissue; host or cells: isolated rat spleen
# T4 sequence (P15823 1-515): T2 sequence (P15823 1-515)
# Description: as §2
# [5] = target: T5, α1A adrenoceptor (prostate) (Rattus norvegicus, UniProt P43140); assay: In vitro functional assay, isolated prostate, phenylepinephrine contraction; assay type: cell-based; details: for Selectivity α1B/α1A / Selectivity α1D/α1A: functional, from pKB; for Kb: rat prostate, phenylepinephrine, read-out: α Adrenoceptor Subtype (pKB) α1A (converted)
# T5 construct: from tissue; host or cells: isolated prostate tissue
# T5 sequence (P43140 1-466): T1 sequence (P43140 1-466)
# Description: as §2
Structure (SMILES),Ki [1] [nM],α1B/α1A [1],Ki [2] [nM],Kb [3] [nM],Kb [4] [nM],Selectivity α1B/α1A [5],Selectivity α1D/α1A [5],Kb [5] [nM]
"Cl.O=C1C2CCC(O)CC2C(=O)N1CCCN1CCN(c2ccccc2OCC(F)(F)F)CC1 (stereo not drawn) [Compound No. 33, 2-[3-{4-(2-(2,2,2-Trifluoroethoxy)phenyl)piperazin-1-yl}propyl]-5-hydroxy-3a,4,5,6,7,7a-hexahydro-1H-isoindole-1,3(2H)-dione hydrochloride]",0.24,142,34,1.58,11,18,2.6,0.603
"Cl.O=C1C2CC=CCC2C(=O)N1CCCN1CCN(c2ccccc2OC2CCCC2)CC1 (stereo not drawn) [Compound No. 43, 2-[3-{4-(2-Cyclopentyloxyphenyl)piperazin-1-yl}propyl]-3a,4,7,7a-tetrahydro-1H-isoindole-1,3(2H)-dione hydrochloride]",0.5,100,50,0.741,12.6,7.4,0.43,1.7
"Cl.O=C1CCCC(=O)N1CCCN1CCN(c2ccccc2O)CC1 [compound 01, 1-[4-(2-Hydroxyphenyl)piperazin-1-yl]-3-(2,6-dioxopiperidin-1-yl)propane hydrochloride]",8.55,9,80,12,38,3.8,1.2,10
"Cl.O=C1C2CC=CCC2C(=O)N1CCCN1CCN(c2ccccc2OCC(F)(F)F)CC1 (stereo not drawn) [compound 02, 2-[3-{4-(2-(2,2,2-Trifluoroethoxy)phenyl)piperazin-1-yl}propyl]-3a, 4,7,7a-tetrahydro-1H-isoindole-1,3(2H)-dione hydrochloride]",0.17,159,27,0.0316,1.29,7.07,0.17,0.182
O=C1CCCC(=O)N1CCCN1CCN(c2ccccc2OCC(F)(F)F)CC1 [compound 03],0.26,181,47,0.148,0.275,0.7,0.38,0.389
"CC(C)Oc1ccccc1N1CCN(CC(O)CN2C(=O)C3CC=CCC3C2=O)CC1.Cl (stereo not drawn) [compound 07, 2-[3-{4-(2-Isopropoxyphenyl)piperazin-1-yl}-2-hydroxypropyl]-3a,4,7,7a-tetrahydro-1H-isoindole-1,3(2H)-dione hydrochloride]",0.56,189,106,2.29,15.8,13,1.9,1.23
"CC(C)Oc1ccccc1N1CC[N+]([O-])(CCCN2C(=O)C3CC=CCC3C2=O)CC1 (stereo not drawn) [compound 08, 2-[3-{4-(2-Isopropoxyphenyl)piperazin-1-yl, 1-N-oxide}propyl]-3a,4,7,7a-tetrahydro-1H-isoindole-1,3(2H)-dione]",6.6,722,4770,21.9,1.02,0.24,5.24,4.17
"CC(C)Oc1ccccc1[N+]1([O-])CC[N+]([O-])(CCCN2C(=O)C3CC=CCC3C2=O)CC1 (stereo not drawn) [compound 09, 2-[3-{4-(2-Isopropoxyphenyl)piperazin-1-yl, 1,4-N,N-dioxide}propyl]-3a,4,7,7a-tetrahydro-1H-isoindole-1,3-(2H)-dione]",1070,,> 1000,100,23.4,3.3,14,7.08
